Source: patent publication US20250368611A1, “METHOD FOR PREPARING BERAPROST 314-D SODIUM” (YS Life Science Co., Ltd., priority 2024, published 2025)
“Also recorded” adds a separate entry of the source.

Columns and labels:
IL-6 = assay: CD19 CAR T-cell / Raji co-culture: IL-6 in supernatant by multiplex Luminex; type: cell-based, human
Excerpt: (§1) The impact of CTO1681 on the efficacy of CD19-targeting CAR T-cells in vitro as well as its ability to reduce CRS-inducing pro-inflammatory cytokine levels in the presence of CAR T-cells and tumor cells in vitro were explored. […] CD3 T cells were sorted from one healthy donor PBMCs, stimulated for a short period of time and transduced with CD19 CAR-T lentivirus (LV) containing CD28 and CD3ζ domains. CD19 CAR T-cells were expanded for 6 days and used in the assay. CD19-targeting CD3 T-cells were treated with 5 increasing concentrations of CTO1681 (0.36 nM, 1.8 nM, 9 nM, 45 nM, and 225 nM) or vehicle for 30 minutes, prior to, and during co-culture with CD19+ Raji lymphoma target cells. Media alone, vehicle, and positive control (dexamethasone) wells were included. Following initial treatment, CAR T-cells (Effectors) were co-cultured with fluorescently labeled CD19+ Raji tumor cells (Target cells) at 3 different Effector:Target cell ratios (10:1, 5:1 and 1:1) and treated with 5 different concentrations of CTO1681 or vehicle for 24 hours. Target cells (Raji cells) were fluorescently labelled with CPD (eBioscience™ Cell Proliferation Dye eFluor™) prior to co-culture to distinguish the Raji cells from the effector cells and allow for analysis of target viability by flow cytometry. Following incubation, supernatant was collected and levels of pro-inflammatory cytokines IL-6 and TNF-α were measured by multiplex Luminex assay and […] was measured via time-resolved fluorescence resonance energy transfer (TR-FRET) assay. These cytokines were selected for quantification as they are early cytokines released following CAR T-cell infusion in vivo that causes hyperactivation of the immune system resulting in acute systemic inflammation, CRS, multiorgan failure, and possible death. In addition, flow cytometry was used to measure the level of Raji tumor/target cell death following CAR T treatment across CTO1681 conditions to measure impact of CTO1681 with CAR T-cell efficacy. Co-cultures were stained with viability dye 7-AAD for measuring viability.

TNF-α = assay: CD19 CAR T-cell / Raji co-culture: TNF-α in supernatant by multiplex Luminex; type: cell-based, human
Excerpt: as §1

IFN-γ = assay: CD19 CAR T-cell / Raji co-culture: IFN-γ in supernatant by TR-FRET; type: cell-based, human
Excerpt: as §1

[1] = tested on: CD19+ Raji lymphoma target cells; assay: CD19 CAR T-cell killing of Raji target cells, flow cytometry (7-AAD); type: cell-based, human; settings: all concentrations 0.36-225 nM; 24 hours co-culture
Excerpt: The impact of CTO1681 on the efficacy of CD19-targeting CAR T-cells in vitro as well as its ability to reduce CRS-inducing pro-inflammatory cytokine levels in the presence of CAR T-cells and tumor cells in vitro were explored. […] CD3 T cells were sorted from one healthy donor PBMCs, stimulated for a short period of time and transduced with CD19 CAR-T lentivirus (LV) containing CD28 and CD3ζ domains. CD19 CAR T-cells were expanded for 6 days and used in the assay. CD19-targeting CD3 T-cells were treated with 5 increasing concentrations of CTO1681 (0.36 nM, 1.8 nM, 9 nM, 45 nM, and 225 nM) or vehicle for 30 minutes, prior to, and during co-culture with CD19+ Raji lymphoma target cells. Media alone, vehicle, and positive control (dexamethasone) wells were included. […] Following incubation, supernatant was collected and levels of pro-inflammatory cytokines IL-6 and TNF-α were measured by multiplex Luminex assay and […] was measured via time-resolved fluorescence resonance energy transfer (TR-FRET) assay. These cytokines were selected for quantification as they are early cytokines released following CAR T-cell infusion in vivo that causes hyperactivation of the immune system resulting in acute systemic inflammation, CRS, multiorgan failure, and possible death. […]

Raji-luc tumor cells = assay: CAR T-cell efficacy in NSG mice bearing Raji-luc tumors (IVIS imaging); type: in vivo; settings: 0.3, 0.2 or 0.15 mg/kg/d BID for 14 days; Day 15
Protocol: The effects if any, of CTO1681 on CAR T-cell activity in vivo were measured. Human T-cells expressing CD19-CD28-CD3Z CAR construct was used in this experiment. 6-7 week old NSG™ (NOD SCID gamma) mice were engrafted with 1×10^6 luciferase (luc) expressing Raji tumor cells (herein referred to as “Raji-luc” tumor cells) each on Day 1 to allow for tumor growth over a 7-day period prior to the commencement of the treatment. CAR T-cell infusion was performed intravenously via lateral tail vein on (5×10^6 CD19 CAR T-cells generated from healthy donors). NSG mice are severely immunodeficient, which facilitates ready tumor engraftment and subsequent clearance due to CAR T-cells can be measured. Tumor growth after engraftment and subsequent clearance were monitored once weekly (starting on Day 7) using IVIS imaging to detect luciferase signal in living mice. CTO1681 administration began on Day 8, two days before CAR T-cell infusion, with injections twice a day for 14 days. Mice received total daily CTO1681 doses of 0.3 mg/kg/d, 0.2 mg/kg/d, or 0.15 mg/kg/d via two injections (BID). CTO1681 doses were selected based on the pharmacokinetic profile of the drug in mice. […] Mice were monitored for body temperature and health evaluations (weight, movement, posture, fur condition, etc.) throughout the entire study.

[2] = Health evaluations in NSG tumor-bearing mice; type: in vivo; settings: 0.3, 0.2 or 0.15 mg/kg/d BID for 14 days with CAR T-cells
Protocol: Tumor growth after engraftment and subsequent clearance were monitored once weekly (starting on Day 7) using IVIS imaging to detect luciferase signal in living mice. CTO1681 administration began on Day 8, two days before CAR T-cell infusion, with injections twice a day for 14 days. Mice received total daily CTO1681 doses of 0.3 mg/kg/d, 0.2 mg/kg/d, or 0.15 mg/kg/d via two injections (BID). CTO1681 doses were selected based on the pharmacokinetic profile of the drug in mice. Control groups included mice receiving Raji-luc tumor cells without CAR T-cell treatment, mice receiving Raji-luc tumor cells and a CAR T-cell infusion, and mice receiving Raji-luc tumor cells with vehicle treatments. Mice were monitored for body temperature and health evaluations (weight, movement, posture, fur condition, etc.) throughout the entire study.

[3] = 10:1 ratio of Effectors to Target cells, 0.36-225 nM, 24 hours
[4] = CAR T-cells:Raji cells 10:1, 0.36-225 nM
[5] = across three ratios of CAR-T cells to Raji cells (10:1, 5:1, 1:1)

For CC#CC[C@H](C)[C@H](O)/C=C/[C@@H]1[C@H]2c3cccc(CCCC(=O)[O-])c3O[C@H]2C[C@H]1O.[Na+] [CTO1681, sodium 4-((1R,2R,3aS,8bS)-2-hydroxy-1-((3S,4S,E)-3-hydroxy-4-methyloct-1-en-6-yn-1-yl)-2,3,3a,8b-tetrahydro-1H-cyclopenta[b]benzofuran-5-yl)butanoate], the “Maximum reduction IL-6” value (IL-6; [3]) was ~23%, the “Effect on IL-6 levels” value (IL-6; [4]) was “dose-dependently reduced; also recorded: dose-dependently lowers” and the “IL-6 with increasing concentrations” value (IL-6; [5]) was “reduction”. For the same compound, the “Maximum reduction TNF-α” value (TNF-α; [3]) was “approximately 50%”, the “Effect on TNF-α levels” value (TNF-α; [4]) was “dose-dependently reduced; also recorded: dose-dependently lowers” and the “TNF-α with increasing concentrations” value (TNF-α; [5]) was “reduction”. The IFN-γ (IFN-γ; [3]) was ~26%, the “Effect on IFN-γ levels” value (IFN-γ; [4]) was “dose-dependently reduced; also recorded: dose-dependently lowers” and the IFN-γ (IFN-γ; [5]) was “reduction”. For the same compound, the “Effect on tumor/target cell killing by CD19-directed CAR T-cells” value [1] was “did not impact or interfere; also recorded: absence of an effect”, the “Effect on CD19 CAR T-cell activity (reduction of tumor burden, luciferase signal)” value (Raji-luc tumor cells) was “did not affect; also recorded: does not interfere” and the “Clinical morbidities, including weight loss or limb movement” value [2] was “did not cause any increase”.
